The text below walks through data of patent publication US9394297B2, “Amides as pim inhibitors” (AMGEN INC., priority 2012, dated 2016).

For one experiment, the target named is Pim-2 (Homo sapiens (Human), UniProt Q9P1W9). Nature of the experiment: Pim-Mn enzyme assay (HTRF, 384-well), Pim-2. Type of experiment: biochemical. The conditions noted are these: Pim-2 enzyme 0.5 pM, ATP 1.5 μM, BAD (S112) 0.5 μM, HTRF, 22-point curve; read-out: Pim-2-Mn IC50 IP.
A further experiment deals with Pim-1 (Homo sapiens (Human), UniProt P11309). Briefly: Pim-Mn enzyme assay (HTRF, 384-well), Pim-1. Type of experiment: biochemical. As to conditions: Pim-1 enzyme 5 pM, ATP 1.5 μM, BAD (S112) 0.5 μM, HTRF, 22-point curve; read-out: Pim-1-Mn IC50 IP.
Chain of Pim-1 (P11309 whole entry): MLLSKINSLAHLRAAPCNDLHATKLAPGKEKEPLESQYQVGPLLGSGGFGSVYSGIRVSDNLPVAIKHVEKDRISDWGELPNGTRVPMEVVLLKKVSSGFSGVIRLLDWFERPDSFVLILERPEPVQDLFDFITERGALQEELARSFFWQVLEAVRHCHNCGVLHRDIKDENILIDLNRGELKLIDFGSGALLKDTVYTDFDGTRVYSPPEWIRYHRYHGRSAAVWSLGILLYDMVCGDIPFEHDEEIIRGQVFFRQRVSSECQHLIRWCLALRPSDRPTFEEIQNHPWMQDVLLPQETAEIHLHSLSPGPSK

Broadly, the IC50 is the concentration needed to halve the response being measured.

Chain of Pim-2 (Q9P1W9 whole entry): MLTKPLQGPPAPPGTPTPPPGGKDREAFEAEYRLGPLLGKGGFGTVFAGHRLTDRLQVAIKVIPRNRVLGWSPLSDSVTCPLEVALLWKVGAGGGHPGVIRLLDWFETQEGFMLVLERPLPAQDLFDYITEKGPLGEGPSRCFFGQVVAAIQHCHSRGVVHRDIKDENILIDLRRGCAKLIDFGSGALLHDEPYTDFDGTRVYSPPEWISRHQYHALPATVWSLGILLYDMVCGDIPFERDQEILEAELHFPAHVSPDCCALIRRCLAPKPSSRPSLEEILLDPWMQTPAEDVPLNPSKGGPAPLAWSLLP

Take `Cc1nc2cccc(-c3cc4c([nH]3)CCNC4=O)c2nc1N[C@@H](C)C(F)(F)F` [Example 255, (S)-2-(2-methyl-3-((1,1,1-trifluoropropan-2-yl)amino)quinoxalin-5-yl)-6,7-dihydro-1H-pyrrolo[3,2-c]pyridin-4(5H)-one]: the IC50 on Pim-2 turned out to be 27.2 nM; at Pim-1, 28.3 nM.

As for `Cc1nc2cccc(-c3cc4c([nH]3)CCNC4=O)c2nc1NC1(C(F)(F)F)CC1` [Example 258, 2-(2-methyl-3-((1-(trifluoromethyl)cyclopropyl)amino)quinoxalin-5-yl)-6,7-dihydro-1H-pyrrolo[3,2-c]pyridin-4(5H)-one], the IC50 at Pim-2 was 0.338 nM; on Pim-1 it was 0.694 nM.

Turning to `Cc1nc2cccc(-c3cc4c(=O)[nH]cnc4[nH]3)c2nc1N` [Example 262, 6-(3-amino-2-methylquinoxalin-5-yl)-3H-pyrrolo[2,3-d]pyrimidin-4(7H)-one], the IC50 was 21 nM at Pim-2 and 18.9 nM at Pim-1.

Consider `Cc1nc2cccc(-c3cc4c(=O)[nH]cnc4[nH]3)c2nc1F` [Example 264, 6-(3-fluoro-2-methylquinoxalin-5-yl)-3H-pyrrolo[2,3-d]pyrimidin-4(7H)-one], for which the results for the IC50 on Pim-2 and on Pim-1 were 1690 nM and 1120 nM, respectively.

With `CSc1nc2c(-c3cc4c([nH]3)CCNC4=O)cccc2c(=O)n1C` [Example 265, 3-methyl-2-(methylthio)-8-(4-oxo-4,5,6,7-tetrahydro-1H-pyrrolo[3,2-c]pyridin-2-yl)quinazolin-4(3H)-one], the IC50 on Pim-2 came out at 11.9 nM; on Pim-1 it was 25.2 nM.

Take `Cn1c(Nc2ccccc2)nc2c(-c3cc4c([nH]3)CCNC4=O)cccc2c1=O` [Example 266, 3-methyl-8-(4-oxo-4,5,6,7-tetrahydro-1H-pyrrolo[3,2-c]pyridin-2-yl)-2-(phenylamino)quinazolin-4(3H)-one]: the IC50 amounted to 2 nM at Pim-2 and 3.1 nM at Pim-1.

For the compound `Cc1nc2cccc(-c3cc4c([nH]3)CCNC4=O)c2nc1OCCC(C)(C)N` [Example 269, 2-(3-(3-amino-3-methylbutoxy)-2-methyl-5-quinoxalinyl)-1,5,6,7-tetrahydro-4H-pyrrolo[3,2-c]pyridin-4-one], the IC50 was found to be 65.3 nM on Pim-2 and 44.5 nM on Pim-1.

Regarding `Cc1nc2cccc(-c3cc4c([nH]3)CCNC4=O)c2nc1NC(C)(C)CS(C)(=O)=O` [Example 274, 2-(3-((1,1-dimethyl-2-(methylsulfonyl)ethyl)amino)-2-methyl-5-quinoxalinyl)-1,5,6,7-tetrahydro-4H-pyrrolo[3,2-c]pyridin-4-one], the half-maximal inhibitory concentration (IC50) is 39.5 nM on Pim-2 and 44.4 nM on Pim-1.

Regarding `Cc1nc2cccc(-c3cc4c([nH]3)C[C@H](C)NC4=O)c2nc1NC(C)(C)C` [Example 288, (6S)-2-(3-(tert-butylamino)-2-methyl-5-quinoxalinyl)-6-methyl-1,5,6,7-tetrahydro-4H-pyrrolo[3,2-c]pyridin-4-one], the figures for the IC50 at Pim-2 and on Pim-1 were 3.96 nM and 5.85 nM, respectively.

Take `Cc1nc2cccc(-c3cc4c([nH]3)C[C@@H](C)NC4=O)c2nc1NC(C)(C)C` [Example 289, (6R)-2-(3-(tert-butylamino)-2-methyl-5-quinoxalinyl)-6-methyl-1,5,6,7-tetrahydro-4H-pyrrolo[3,2-c]pyridin-4-one]: the IC50 on Pim-2 is 3.37 nM; on Pim-1 it was 2.69 nM.

`Cc1nc2cccc(-c3cc4c([nH]3)CCNC4=O)c2nc1N[C@H]1C[C@H](NC(=O)OC(C)(C)C)C1` [Example 436, tert-butyl ((1r,3s)-3-((3-methyl-8-(4-oxo-4,5,6,7-tetrahydro-1H-pyrrolo[3,2-c]pyridin-2-yl)quinoxalin-2-yl)amino)cyclobutyl)carbamate]: the values for the IC50 on Pim-2 and on Pim-1 were 8.2 nM and 4.1 nM, respectively.

For `CC(C)(C)Nc1nc2c(-c3cc4c([nH]3)CCNC4=O)cccc2nc1-c1ccccc1` [Example 438, 2-(3-(tert-Butylamino)-2-phenylquinoxalin-5-yl)-6,7-dihydro-1H-pyrrolo[3,2-c]pyridin-4(5H)-one], the IC50 on Pim-2 was 12 nM; at Pim-1 it was 3.1 nM.

For `Cc1nc2cccc(-c3cc4c([nH]3)CCNC4=O)c2nc1N[C@H]1C[C@@H](O)C1` [Example 439, 2-(3-((cis-3-Hydroxycyclobutyl)amino)-2-methylquinoxalin-5-yl)-6,7-dihydro-1H-pyrrolo[3,2-c]pyridin-4(5H)-one], the IC50 stood at 1.4 nM at Pim-2 and 2.5 nM at Pim-1.

Consider `Cc1nc2cccc(-c3[nH]c4c(c3Cl)C(=O)N[C@@H]4C)c2nc1NC1(C)CC1` [Example 454, (R)-3-chloro-6-methyl-2-(2-methyl-3-((1-methylcyclopropyl)amino)quinoxalin-5-yl)-5,6-dihydropyrrolo[3,4-b]pyrrol-4(1H)-one], for which the IC50 turned out to be 0.599 nM at Pim-2 and 0.255 nM at Pim-1.

`Cc1nc2cccc(-c3cc4c([nH]3)CCNC4=O)c2nc1N[C@H]1C[C@@H](N(CCF)CCF)C1` [Example 476, 2-(3-(((1 s,3s)-3-(bis(2-fluoroethyl)amino)cyclobutyl)amino)-2-methylquinoxalin-5-yl)-6,7-dihydro-1H-pyrrolo[3,2-c]pyridin-4(5H)-one]: the results for the IC50 on Pim-2 and at Pim-1 were 12 nM and 2 nM, respectively.

With `Cc1nc2cccc(-c3cc4c([nH]3)CCNC4=O)c2nc1N[C@H]1C[C@@H](NCCF)C1` [Example 477, 2-(3-(((1s,3s)-3-((2-fluoroethyl)amino)cyclobutyl)amino)-2-methylquinoxalin-5-yl)-6,7-dihydro-1H-pyrrolo[3,2-c]pyridin-4(5H)-one], the IC50 on Pim-2 and on Pim-1 was 1 nM each time.

In the case of `C[C@H]1NC(=O)c2cc(-c3cccc4c(=O)n(-c5cccnc5)c(NC(C)(C)C)nc34)[nH]c21` [Example 482, 2-(tert-butylamino)-8-((6R)-6-methyl-4-oxo-1,4,5,6-tetrahydropyrrolo[3,4-b]pyrrol-2-yl)-3-(3-pyridinyl)-4(3H)-quinazolinone], the IC50 on Pim-2 was found to be 2.77 nM; on Pim-1, 0.718 nM.

Take `Cc1nc2cccc(-c3cc4c([nH]3)[C@@H](C)NC4=O)c2nc1N[C@H]1CCC[C@@H](N)C1` [Example 483, (6R)-2-(3-(((1S,3R)-3-aminocyclohexyl)amino)-2-methyl-5-quinoxalinyl)-6-methyl-5,6-dihydropyrrolo[3,4-b]pyrrol-4(1H)-one]: the IC50 on Pim-2 worked out at 0.0358 nM; at Pim-1, 0.0598 nM.

For the compound `C[C@H]1NC(=O)c2cc(-c3cccc4c(N)nc(NC(C)(C)C)nc34)[nH]c21` [Example 484, (6R)-2-(4-amino-2-(tert-butylamino)-8-quinazolinyl)-6-methyl-5,6-dihydropyrrolo[3,4-b]pyrrol-4(1H)-one], the half-maximal inhibitory concentration (IC50) came to 7.66 nM on Pim-2 and 3.98 nM at Pim-1.

With `CC(=O)N[C@@H]1CCC[C@H](Nc2nc3c(-c4cc5c([nH]4)[C@@H](C)NC5=O)cccc3nc2C)C1` [Example 486, N-((1R,3S)-3-((3-methyl-8-((6R)-6-methyl-4-oxo-1,4,5,6-tetrahydropyrrolo[3,4-b]pyrrol-2-yl)-2-quinoxalinyl)amino)cyclohexyl)acetamide], the IC50 on Pim-2 is 2.38 nM; at Pim-1, 1.73 nM.
